# Test results taken from ChEMBL document CHEMBL1127553, “Derivatives of a novel cyclopeptolide. 2. Synthesis, activity against multidrug resistance in CHO and KB cells in vitro, and structure-activity relationships” (1994).
# Non-standard residues stand in square brackets, D forms with d. Residues, ends and D or L forms follow the SMILES beside them. *: point of attachment. NMeI = CC[C@H](C)[C@H](NC)C(=O)O; NMeD = CN[C@@H](CC(=O)O)C(=O)O; NMeV = CN[C@H](C(=O)O)C(C)C; Pip = O=C(O)[C@@H]1CCCCN1; dLac = C[C@@H](O)C(=O)O; OtBu = CC(C)(C)O*
# How the values were obtained:
# CHO [1] = assay: The sensitizing capacity for colchicine treatment of multi drug resistance (MDR) CHO cell at concentration 1.0(mg/L).; assay type: functional, Cricetulus griseus
# CHO [2] = assay: The sensitizing capacity for colchicine treatment of multi drug resistance(MDR) in CHO cell at concentration 0.1(mg/L).; assay type: functional, Cricetulus griseus
# CHO [3] = assay: Sensitization of colchicine treated parental (PAR)CHO cells, measured at concentration 0.1(mg/L); assay type: functional, Cricetulus griseus
# CHO [4] = assay: The sensitizing capacity for colchicine treatment of parental (PAR)CHO cells at concentration 1.0 (mg/L); assay type: functional, Cricetulus griseus
# KB [5] = assay: The sensitizing capacity of compound for colchicine treatment of multi drug resistance in KB cell was measured at concentration 1.0(mg/L); assay type: functional, Homo sapiens
# KB [6] = assay: The sensitizing capacity of compound for colchicine treatment of multi drug resistance in KB cell was measured at concentration 3.0(mg/L)
smiles,measurement,setting,value
CC[C@H](C)[C@H]1C(=O)NCC(=O)N(C)[C@@H](C(C)C)C(=O)N[C@@H](Cc2ccc(OC)cc2)C(=O)O[C@H](C)C(=O)N2CCCC[C@H]2C(=O)N(C)[C@@H](C(C)C)C(=O)N[C@@H](C(C)C)C(=O)N(C)[C@@H](CC(=O)OC(C)(C)C)C(=O)N(C)[C@@H]([C@@H](C)CC)C(=O)N1C (cyclo(G[NMeV]Y(Me)[dLac][Pip][NMeV]V[NMeD](OtBu)[NMeI][NMeI])),Activity,CHO [1],135
same,Activity,CHO [2],3.8
same,Activity,CHO [3],4.6
same,Activity,CHO [4],8.6
same,Activity,KB [5],1.1
same,Chemosensitizing activity,KB [6],1.8
